# According to the supplement of paper PMC4862054:
# Test system: SK-BR-3
# Assay: normalised response (% of control), CellTiter-Glo; higher = more viable cells (100 = DMSO, 0 = benzethonium chloride kill control)
# Conditions: incubation time: 72 h
# Procedure: (§1)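 DSRT, 72 h incubation, CellTox Green / CellTiter-Glo readout. Signal is normalised to DMSO and benzethonium chloride controls. Value is the normalised response at the highest dose.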
row,SMILES,normalised response [%]
1,CC(C)NC[C@@H](C(=O)N1CCN(c2ncnc3c2[C@H](C)C[C@H]3O)CC1)c1ccc(Cl)cc1 [GDC-0068] (10000 nM),44.3
2,CCCc1cc(C)[nH]c(=O)c1CNC(=O)c1cc(-c2ccnc(N3CCN(C)CC3)c2)cc2c1cnn2C(C)C [GSK343] (10000 nM),11.3

# Test system: HCC1143
# Assay: as above
# Conditions: incubation time: 72 h
# Procedure: as §1
row,SMILES,normalised response [%]
1,CC(C)(C)Cn1c(N)nc2ccc(-c3[nH]c(C(C)(C)C)nc3-c3ccc(F)cc3)nc21 (10000 nM),86.1
2,Cn1cc(C[C@@H](N)C(=O)O)c2ccccc21 [1-methyl-D-tryptophan] (5000 nM),102
3,CC[C@H](CC#N)OC(=O)N[C@@H](C)c1cccc(NC(=O)Nc2ccc(-c3cnco3)c(OC)c2)c1 [AVN944] (10000 nM),31.5
4,CCc1cnn2c(NCc3ccc[n+]([O-])c3)cc(N3CCCC[C@H]3CCO)nc12 [Dinaciclib] (1000 nM),19.3
5,Cc1c(C(=O)Nc2ccc(N3C[C@@H](C)O[C@@H](C)C3)nc2)cccc1-c1ccc(OC(F)(F)F)cc1 [Erismodegib] (10000 nM),89.4
6,COc1cc(Nc2ncc(F)c(Nc3ccc4c(n3)N(COP(=O)(O)O)C(=O)C(C)(C)O4)n2)cc(OC)c1OC [Fostamatinib] (2500 nM),63.2
7,CC(C)NC[C@@H](C(=O)N1CCN(c2ncnc3c2[C@H](C)C[C@H]3O)CC1)c1ccc(Cl)cc1 [GDC-0068] (10000 nM),55.8
8,CCCc1cc(C)[nH]c(=O)c1CNC(=O)c1cc(-c2ccnc(N3CCN(C)CC3)c2)cc2c1cnn2C(C)C [GSK343] (10000 nM),68.9

# Test system: DU-4475
# Assay: as above
# Conditions: incubation time: 72 h
# Procedure: as §1
row,SMILES,normalised response [%]
1,CC(C)(C)Cn1c(N)nc2ccc(-c3[nH]c(C(C)(C)C)nc3-c3ccc(F)cc3)nc21 (10000 nM),99.4
2,Cn1cc(C[C@@H](N)C(=O)O)c2ccccc21 [1-methyl-D-tryptophan] (5000 nM),92.9
3,CC[C@H](CC#N)OC(=O)N[C@@H](C)c1cccc(NC(=O)Nc2ccc(-c3cnco3)c(OC)c2)c1 [AVN944] (10000 nM),15.7
4,CCc1cnn2c(NCc3ccc[n+]([O-])c3)cc(N3CCCC[C@H]3CCO)nc12 [Dinaciclib] (1000 nM),21.8
5,Cc1c(C(=O)Nc2ccc(N3C[C@@H](C)O[C@@H](C)C3)nc2)cccc1-c1ccc(OC(F)(F)F)cc1 [Erismodegib] (10000 nM),99.6
6,COc1cc(Nc2ncc(F)c(Nc3ccc4c(n3)N(COP(=O)(O)O)C(=O)C(C)(C)O4)n2)cc(OC)c1OC [Fostamatinib] (2500 nM),65.1
7,CC(C)NC[C@@H](C(=O)N1CCN(c2ncnc3c2[C@H](C)C[C@H]3O)CC1)c1ccc(Cl)cc1 [GDC-0068] (10000 nM),75.2
8,CCCc1cc(C)[nH]c(=O)c1CNC(=O)c1cc(-c2ccnc(N3CCN(C)CC3)c2)cc2c1cnn2C(C)C [GSK343] (10000 nM),77.8

# Test system: CAL-148
# Assay: as above
# Conditions: incubation time: 72 h
# Procedure: as §1
row,SMILES,normalised response [%]
1,CC(C)(C)Cn1c(N)nc2ccc(-c3[nH]c(C(C)(C)C)nc3-c3ccc(F)cc3)nc21 (10000 nM),94.7
2,Cn1cc(C[C@@H](N)C(=O)O)c2ccccc21 [1-methyl-D-tryptophan] (5000 nM),85.7
3,CC[C@H](CC#N)OC(=O)N[C@@H](C)c1cccc(NC(=O)Nc2ccc(-c3cnco3)c(OC)c2)c1 [AVN944] (10000 nM),41.4
4,CCc1cnn2c(NCc3ccc[n+]([O-])c3)cc(N3CCCC[C@H]3CCO)nc12 [Dinaciclib] (1000 nM),67.5
5,Cc1c(C(=O)Nc2ccc(N3C[C@@H](C)O[C@@H](C)C3)nc2)cccc1-c1ccc(OC(F)(F)F)cc1 [Erismodegib] (10000 nM),100
6,COc1cc(Nc2ncc(F)c(Nc3ccc4c(n3)N(COP(=O)(O)O)C(=O)C(C)(C)O4)n2)cc(OC)c1OC [Fostamatinib] (2500 nM),106
7,CC(C)NC[C@@H](C(=O)N1CCN(c2ncnc3c2[C@H](C)C[C@H]3O)CC1)c1ccc(Cl)cc1 [GDC-0068] (10000 nM),3.54
8,CCCc1cc(C)[nH]c(=O)c1CNC(=O)c1cc(-c2ccnc(N3CCN(C)CC3)c2)cc2c1cnn2C(C)C [GSK343] (10000 nM),62.8

# Test system: HDQ-P1
# Assay: as above
# Conditions: incubation time: 72 h
# Procedure: as §1
row,SMILES,normalised response [%]
1,CC(C)(C)Cn1c(N)nc2ccc(-c3[nH]c(C(C)(C)C)nc3-c3ccc(F)cc3)nc21 (10000 nM),70.7
2,Cn1cc(C[C@@H](N)C(=O)O)c2ccccc21 [1-methyl-D-tryptophan] (5000 nM),111
3,CC[C@H](CC#N)OC(=O)N[C@@H](C)c1cccc(NC(=O)Nc2ccc(-c3cnco3)c(OC)c2)c1 [AVN944] (10000 nM),42.3
4,CCc1cnn2c(NCc3ccc[n+]([O-])c3)cc(N3CCCC[C@H]3CCO)nc12 [Dinaciclib] (1000 nM),23
5,Cc1c(C(=O)Nc2ccc(N3C[C@@H](C)O[C@@H](C)C3)nc2)cccc1-c1ccc(OC(F)(F)F)cc1 [Erismodegib] (10000 nM),85.3
6,COc1cc(Nc2ncc(F)c(Nc3ccc4c(n3)N(COP(=O)(O)O)C(=O)C(C)(C)O4)n2)cc(OC)c1OC [Fostamatinib] (2500 nM),26.1
7,CC(C)NC[C@@H](C(=O)N1CCN(c2ncnc3c2[C@H](C)C[C@H]3O)CC1)c1ccc(Cl)cc1 [GDC-0068] (10000 nM),58.3
8,CCCc1cc(C)[nH]c(=O)c1CNC(=O)c1cc(-c2ccnc(N3CCN(C)CC3)c2)cc2c1cnn2C(C)C [GSK343] (10000 nM),66.7

# Test system: CAL-120
# Assay: as above
# Conditions: incubation time: 72 h
# Procedure: as §1
row,SMILES,normalised response [%]
1,CC(C)(C)Cn1c(N)nc2ccc(-c3[nH]c(C(C)(C)C)nc3-c3ccc(F)cc3)nc21 (10000 nM),89.3
2,Cn1cc(C[C@@H](N)C(=O)O)c2ccccc21 [1-methyl-D-tryptophan] (5000 nM),101
3,CC[C@H](CC#N)OC(=O)N[C@@H](C)c1cccc(NC(=O)Nc2ccc(-c3cnco3)c(OC)c2)c1 [AVN944] (10000 nM),50.6
4,CCc1cnn2c(NCc3ccc[n+]([O-])c3)cc(N3CCCC[C@H]3CCO)nc12 [Dinaciclib] (1000 nM),38.1
5,Cc1c(C(=O)Nc2ccc(N3C[C@@H](C)O[C@@H](C)C3)nc2)cccc1-c1ccc(OC(F)(F)F)cc1 [Erismodegib] (10000 nM),97.6
6,COc1cc(Nc2ncc(F)c(Nc3ccc4c(n3)N(COP(=O)(O)O)C(=O)C(C)(C)O4)n2)cc(OC)c1OC [Fostamatinib] (2500 nM),43.7
7,CC(C)NC[C@@H](C(=O)N1CCN(c2ncnc3c2[C@H](C)C[C@H]3O)CC1)c1ccc(Cl)cc1 [GDC-0068] (10000 nM),70.3
8,CCCc1cc(C)[nH]c(=O)c1CNC(=O)c1cc(-c2ccnc(N3CCN(C)CC3)c2)cc2c1cnn2C(C)C [GSK343] (10000 nM),79.4

# Test system: HCC1937
# Assay: as above
# Conditions: incubation time: 72 h
# Procedure: as §1
row,SMILES,normalised response [%]
1,CC(C)(C)Cn1c(N)nc2ccc(-c3[nH]c(C(C)(C)C)nc3-c3ccc(F)cc3)nc21 (10000 nM),65.3
2,Cn1cc(C[C@@H](N)C(=O)O)c2ccccc21 [1-methyl-D-tryptophan] (5000 nM),99.5
3,CC[C@H](CC#N)OC(=O)N[C@@H](C)c1cccc(NC(=O)Nc2ccc(-c3cnco3)c(OC)c2)c1 [AVN944] (10000 nM),42.2
4,CCc1cnn2c(NCc3ccc[n+]([O-])c3)cc(N3CCCC[C@H]3CCO)nc12 [Dinaciclib] (1000 nM),27.8
5,Cc1c(C(=O)Nc2ccc(N3C[C@@H](C)O[C@@H](C)C3)nc2)cccc1-c1ccc(OC(F)(F)F)cc1 [Erismodegib] (10000 nM),90.2
6,COc1cc(Nc2ncc(F)c(Nc3ccc4c(n3)N(COP(=O)(O)O)C(=O)C(C)(C)O4)n2)cc(OC)c1OC [Fostamatinib] (2500 nM),54
7,CC(C)NC[C@@H](C(=O)N1CCN(c2ncnc3c2[C@H](C)C[C@H]3O)CC1)c1ccc(Cl)cc1 [GDC-0068] (10000 nM),61.5
8,CCCc1cc(C)[nH]c(=O)c1CNC(=O)c1cc(-c2ccnc(N3CCN(C)CC3)c2)cc2c1cnn2C(C)C [GSK343] (10000 nM),100

# Test system: CAL-51
# Assay: as above
# Conditions: incubation time: 72 h
# Procedure: as §1
row,SMILES,normalised response [%]
1,CC(C)(C)Cn1c(N)nc2ccc(-c3[nH]c(C(C)(C)C)nc3-c3ccc(F)cc3)nc21 (10000 nM),104
2,Cn1cc(C[C@@H](N)C(=O)O)c2ccccc21 [1-methyl-D-tryptophan] (5000 nM),107
3,CC[C@H](CC#N)OC(=O)N[C@@H](C)c1cccc(NC(=O)Nc2ccc(-c3cnco3)c(OC)c2)c1 [AVN944] (10000 nM),19
4,CCc1cnn2c(NCc3ccc[n+]([O-])c3)cc(N3CCCC[C@H]3CCO)nc12 [Dinaciclib] (1000 nM),14.3
5,Cc1c(C(=O)Nc2ccc(N3C[C@@H](C)O[C@@H](C)C3)nc2)cccc1-c1ccc(OC(F)(F)F)cc1 [Erismodegib] (10000 nM),102
6,COc1cc(Nc2ncc(F)c(Nc3ccc4c(n3)N(COP(=O)(O)O)C(=O)C(C)(C)O4)n2)cc(OC)c1OC [Fostamatinib] (2500 nM),50.8
7,CC(C)NC[C@@H](C(=O)N1CCN(c2ncnc3c2[C@H](C)C[C@H]3O)CC1)c1ccc(Cl)cc1 [GDC-0068] (10000 nM),36.8
8,CCCc1cc(C)[nH]c(=O)c1CNC(=O)c1cc(-c2ccnc(N3CCN(C)CC3)c2)cc2c1cnn2C(C)C [GSK343] (10000 nM),120

# Test system: MDA-MB-231
# Assay: as above
# Conditions: incubation time: 72 h
# Procedure: as §1
row,SMILES,normalised response [%]
1,CC(C)(C)Cn1c(N)nc2ccc(-c3[nH]c(C(C)(C)C)nc3-c3ccc(F)cc3)nc21 (10000 nM),67.2
2,Cn1cc(C[C@@H](N)C(=O)O)c2ccccc21 [1-methyl-D-tryptophan] (5000 nM),95.7
3,CC[C@H](CC#N)OC(=O)N[C@@H](C)c1cccc(NC(=O)Nc2ccc(-c3cnco3)c(OC)c2)c1 [AVN944] (10000 nM),47
4,CCc1cnn2c(NCc3ccc[n+]([O-])c3)cc(N3CCCC[C@H]3CCO)nc12 [Dinaciclib] (1000 nM),6.98
5,Cc1c(C(=O)Nc2ccc(N3C[C@@H](C)O[C@@H](C)C3)nc2)cccc1-c1ccc(OC(F)(F)F)cc1 [Erismodegib] (10000 nM),79
6,COc1cc(Nc2ncc(F)c(Nc3ccc4c(n3)N(COP(=O)(O)O)C(=O)C(C)(C)O4)n2)cc(OC)c1OC [Fostamatinib] (2500 nM),20.3
7,CC(C)NC[C@@H](C(=O)N1CCN(c2ncnc3c2[C@H](C)C[C@H]3O)CC1)c1ccc(Cl)cc1 [GDC-0068] (10000 nM),89.5
8,CCCc1cc(C)[nH]c(=O)c1CNC(=O)c1cc(-c2ccnc(N3CCN(C)CC3)c2)cc2c1cnn2C(C)C [GSK343] (10000 nM),7.92

# Test system: MCF-10A
# Assay: as above
# Conditions: incubation time: 72 h
# Procedure: as §1
row,SMILES,normalised response [%]
1,CC(C)(C)Cn1c(N)nc2ccc(-c3[nH]c(C(C)(C)C)nc3-c3ccc(F)cc3)nc21 (10000 nM),43.6
2,Cn1cc(C[C@@H](N)C(=O)O)c2ccccc21 [1-methyl-D-tryptophan] (5000 nM),97.4
3,CC[C@H](CC#N)OC(=O)N[C@@H](C)c1cccc(NC(=O)Nc2ccc(-c3cnco3)c(OC)c2)c1 [AVN944] (10000 nM),58.9
4,CCc1cnn2c(NCc3ccc[n+]([O-])c3)cc(N3CCCC[C@H]3CCO)nc12 [Dinaciclib] (1000 nM),21.3
5,Cc1c(C(=O)Nc2ccc(N3C[C@@H](C)O[C@@H](C)C3)nc2)cccc1-c1ccc(OC(F)(F)F)cc1 [Erismodegib] (10000 nM),92
6,COc1cc(Nc2ncc(F)c(Nc3ccc4c(n3)N(COP(=O)(O)O)C(=O)C(C)(C)O4)n2)cc(OC)c1OC [Fostamatinib] (2500 nM),15.1
7,CC(C)NC[C@@H](C(=O)N1CCN(c2ncnc3c2[C@H](C)C[C@H]3O)CC1)c1ccc(Cl)cc1 [GDC-0068] (10000 nM),58.9
8,CCCc1cc(C)[nH]c(=O)c1CNC(=O)c1cc(-c2ccnc(N3CCN(C)CC3)c2)cc2c1cnn2C(C)C [GSK343] (10000 nM),97.5
